Measurements taken from patent publication US20170008888A1 (KYORIN PHARMACEUTICAL CO., LTD., priority 2014, published 2017).

Columns and labels:
AMPKa1 or AMPKa2 = experiment: Probe-based (AX9989) kinase profiling in Jurkat lysate: AMPKa1 or AMPKa2; type: binding
Summary of the method: (§1)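 Read-out: LC/MS intensity of desthiobiotinylated kinase active-site peptides, percent inhibition normalized to no-compound lysate. Jurkat lysate with 20 mM MnCl2 received compound for 15 min at room temperature, then 5 μM AX9989 probe; duplicates.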

TAO2 = target: T1, TAO2 (Homo sapiens, UniProt Q9UL54); experiment: Probe-based (AX9989) kinase profiling in Jurkat lysate: TAO2; type: binding; conditions: read-out: Kinase inhibition % at indicated screening concentration: TAO2; for inhibition at 1 µM: screening concentration 1.0 μM; for inhibition at 0.1 µM: screening concentration 0.1 μM
T1 construct: screened for activity against several kinases in Jurkat cells; endogenous in cells; host or cells: Jurkat cell lysate
T1 sequence (Q9UL54 1-1235): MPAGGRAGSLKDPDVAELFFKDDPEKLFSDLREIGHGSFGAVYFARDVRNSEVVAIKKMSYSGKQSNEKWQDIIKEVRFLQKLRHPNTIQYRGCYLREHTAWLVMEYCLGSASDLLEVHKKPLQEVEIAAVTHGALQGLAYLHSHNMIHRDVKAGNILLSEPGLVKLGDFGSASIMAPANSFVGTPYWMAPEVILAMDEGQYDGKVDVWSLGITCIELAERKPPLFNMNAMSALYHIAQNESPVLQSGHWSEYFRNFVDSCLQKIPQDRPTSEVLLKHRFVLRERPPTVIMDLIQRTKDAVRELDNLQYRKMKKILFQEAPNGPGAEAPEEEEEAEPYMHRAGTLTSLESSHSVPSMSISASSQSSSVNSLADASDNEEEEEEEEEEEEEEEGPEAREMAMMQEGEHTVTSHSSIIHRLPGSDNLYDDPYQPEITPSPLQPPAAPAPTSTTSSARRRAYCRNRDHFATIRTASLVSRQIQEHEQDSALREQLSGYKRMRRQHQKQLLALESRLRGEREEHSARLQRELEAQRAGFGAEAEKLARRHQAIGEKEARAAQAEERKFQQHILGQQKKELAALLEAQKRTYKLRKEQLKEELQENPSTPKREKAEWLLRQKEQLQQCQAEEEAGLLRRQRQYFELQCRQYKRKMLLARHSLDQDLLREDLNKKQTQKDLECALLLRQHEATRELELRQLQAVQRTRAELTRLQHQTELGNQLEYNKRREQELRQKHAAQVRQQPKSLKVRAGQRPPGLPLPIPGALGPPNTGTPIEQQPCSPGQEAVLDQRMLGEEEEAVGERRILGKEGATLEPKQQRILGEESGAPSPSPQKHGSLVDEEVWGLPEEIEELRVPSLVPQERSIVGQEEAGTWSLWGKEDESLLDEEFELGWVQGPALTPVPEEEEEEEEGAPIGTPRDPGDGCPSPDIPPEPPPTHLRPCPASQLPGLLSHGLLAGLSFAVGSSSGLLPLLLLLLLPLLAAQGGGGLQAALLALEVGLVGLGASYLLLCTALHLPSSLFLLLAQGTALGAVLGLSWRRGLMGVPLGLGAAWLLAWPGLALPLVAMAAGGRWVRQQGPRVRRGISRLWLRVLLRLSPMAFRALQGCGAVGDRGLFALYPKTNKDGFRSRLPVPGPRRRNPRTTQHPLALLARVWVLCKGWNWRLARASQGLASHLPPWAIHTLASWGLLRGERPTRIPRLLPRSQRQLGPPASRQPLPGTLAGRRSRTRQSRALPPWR
Summary of the method: as §1

human PBMCs = experiment: Human PBMC TNF-α response to endotoxin (ELISA); type: cell-based; conditions: 0.1 μg/ml LPS 16 h, read-out: EC50 for the inhibition of the human PBMC TNF-α response to endotoxin, ave. ± S.D.
Summary of the method: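 PBMCs at 2e6 cells/ml in RPMI 1640 with 10% charcoal-dextran-treated FBS were pre-treated 1 h at 37 °C with compound (4-point 1:5 dilution from 10 μM). Stimulation with 0.1 μg/ml E. coli 0111:B4 LPS for 16 h; TNF-α measured by ELISA (A450) in 25-fold diluted supernatant.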

Compound: CCOc1cc(C(=O)N2CCCCC2)ccc1Nc1cc2c(cn1)N(C)C(=O)c1ccccc1N2C [Compound 12]
- Kinase inhibition % at indicated screening concentration: AMPKa1 or AMPKa2 (AMPKa1 or AMPKa2; screening concentration 1.0 μM): E (E is ≦35%)
- inhibition at 1 µM (TAO2): ≤ 35%
- EC50 (human PBMCs): 630 nM

Compound: CCOc1cc(C(=O)N2CCC(N3CCCC3)C2)ccc1Nc1cc2c(cn1)N(C)C(=O)c1occc1N2C (stereo not drawn) [Compound 15]
- Kinase inhibition % at indicated screening concentration: AMPKa1 or AMPKa2 (AMPKa1 or AMPKa2; screening concentration 0.1 μM): E (E is ≦35%)
- inhibition at 0.1 µM (TAO2): ≤ 35%
- EC50 (human PBMCs): 490 ± 30 nM

Compound: CCOc1cc(C(=O)N2CC[C@H](O)C2)ccc1Nc1cc2c(cn1)N(C)C(=O)c1occc1N2C [Compound 17]
- Kinase inhibition % at indicated screening concentration: AMPKa1 or AMPKa2 (AMPKa1 or AMPKa2; screening concentration 0.1 μM): E (E is ≦35%)
- inhibition at 0.1 µM (TAO2): ≤ 35%
- EC50 (human PBMCs): 2230 nM

Compound: C=CCN1CCN(C(=O)c2ccc(Nc3cc4c(cn3)N(C)C(=O)c3ccccc3N4C)c(OCC)c2)CC1 [Compound 21]
- Kinase inhibition % at indicated screening concentration: AMPKa1 or AMPKa2 (AMPKa1 or AMPKa2; screening concentration 0.1 μM): E (E is ≦35%)
- inhibition at 0.1 µM (TAO2): ≤ 35%
- EC50 (human PBMCs): 1220 nM

Compound: CCOc1cc(C(=O)N2CC[C@@H](N3CCCC3)C2)ccc1Nc1cc2c(cn1)N(C)C(=O)c1ccccc1N2C [Compound 24]
- Kinase inhibition % at indicated screening concentration: AMPKa1 or AMPKa2 (AMPKa1 or AMPKa2; screening concentration 0.1 μM): E (E is ≦35%)
- inhibition at 0.1 µM (TAO2): ≤ 35%
- EC50 (human PBMCs): 910 nM

Compound: CCOc1cc(C(=O)N2CC[C@@H](N(C)C)C2)ccc1Nc1cc2c(cn1)N(C)C(=O)c1occc1N2C [Compound 25]
- Kinase inhibition % at indicated screening concentration: AMPKa1 or AMPKa2 (AMPKa1 or AMPKa2; screening concentration 0.1 μM): E (E is ≦35%)
- inhibition at 0.1 µM (TAO2): ≤ 35%
- EC50 (human PBMCs): 1170 ± 70 nM

Compound: CCOc1cc(C(=O)N(C)CCN2CCCC2)ccc1Nc1cc2c(cn1)N(C)C(=O)c1ccccc1N2C [Compound 28]
- Kinase inhibition % at indicated screening concentration: AMPKa1 or AMPKa2 (AMPKa1 or AMPKa2; screening concentration 0.1 μM): E (E is ≦35%)
- inhibition at 0.1 µM (TAO2): ≤ 35%
- EC50 (human PBMCs): 480 nM

Compound: CCOc1cc(C(=O)N(C)CCn2ccnc2)ccc1Nc1cc2c(cn1)N(C)C(=O)c1ccccc1N2C [Compound 30]
- Kinase inhibition % at indicated screening concentration: AMPKa1 or AMPKa2 (AMPKa1 or AMPKa2; screening concentration 0.1 μM): E (E is ≦35%)
- inhibition at 0.1 µM (TAO2): ≤ 35%
- EC50 (human PBMCs): 1260 ± 170 nM

Compound: CCOc1cc(C(=O)N2CCNC[C@@H]2C)ccc1Nc1cc2c(cn1)N(C)C(=O)c1ccccc1N2C [Compound 31]
- Kinase inhibition % at indicated screening concentration: AMPKa1 or AMPKa2 (AMPKa1 or AMPKa2; screening concentration 0.1 μM): E (E is ≦35%)
- inhibition at 0.1 µM (TAO2): ≤ 35%
- EC50 (human PBMCs): 1250 nM

Compound: CCOc1cc(C(=O)N2CCN(CCO)CC2)ccc1Nc1cc2c(cn1)N(C)C(=O)c1ccccc1N2C [Compound 37]
- Kinase inhibition % at indicated screening concentration: AMPKa1 or AMPKa2 (AMPKa1 or AMPKa2; screening concentration 0.1 μM): E (E is ≦35%)
- inhibition at 0.1 µM (TAO2): ≤ 35%
- EC50 (human PBMCs): 960 nM

Compound: CCOc1cc(C(=O)N2CCN(C3CC3)CC2)ccc1Nc1cc2c(cn1)N(C)C(=O)c1ccccc1N2C [Compound 39]
- Kinase inhibition % at indicated screening concentration: AMPKa1 or AMPKa2 (AMPKa1 or AMPKa2; screening concentration 0.1 μM): E (E is ≦35%)
- inhibition at 0.1 µM (TAO2): ≤ 35%
- EC50 (human PBMCs): 1770 nM

Compound: CCOc1cc(C(=O)N2CCC(N3CCN(C)CC3)CC2)ccc1Nc1cc2c(cn1)N(C)C(=O)c1ncccc1N2C [Compound 40]
- Kinase inhibition % at indicated screening concentration: AMPKa1 or AMPKa2 (AMPKa1 or AMPKa2; screening concentration 1.0 μM): E (E is ≦35%)
- inhibition at 1 µM (TAO2): ≤ 35%
- EC50 (human PBMCs): > 10000 nM

Compound: CCOc1cc(C(=O)N(C)CCN(CC)CC)ccc1Nc1cc2c(cn1)N(C)C(=O)c1ccccc1N2C [Compound 42]
- Kinase inhibition % at indicated screening concentration: AMPKa1 or AMPKa2 (AMPKa1 or AMPKa2; screening concentration 1.0 μM): E (E is ≦35%)
- inhibition at 1 µM (TAO2): ≤ 35%
- EC50 (human PBMCs): 650 nM

Compound: CCOc1cc(C(=O)N2CCC(NC)C2)ccc1Nc1cc2c(cn1)N(C)C(=O)c1occc1N2C (stereo not drawn) [Compound 43]
- Kinase inhibition % at indicated screening concentration: AMPKa1 or AMPKa2 (AMPKa1 or AMPKa2; screening concentration 0.1 μM): E (E is ≦35%)
- inhibition at 0.1 µM (TAO2): ≤ 35%
- EC50 (human PBMCs): 1480 nM

Compound: CCOc1cc(C(=O)NCCN2CCN(C)CC2)ccc1Nc1cc2c(cn1)N(C)C(=O)c1ccccc1N2C [Compound 44]
- Kinase inhibition % at indicated screening concentration: AMPKa1 or AMPKa2 (AMPKa1 or AMPKa2; screening concentration 1.0 μM): E (E is ≦35%)
- inhibition at 1 µM (TAO2): ≤ 35%
- EC50 (human PBMCs): 590 nM

Compound: CN1C(=O)c2ccccc2N(C)c2cc(N[C@H]3CC[C@H](NC4=NCCO4)CC3)ncc21 [Compound 45]
- Kinase inhibition % at indicated screening concentration: AMPKa1 or AMPKa2 (AMPKa1 or AMPKa2; screening concentration 1.0 μM): E (E is ≦35%)
- inhibition at 1 µM (TAO2): ≤ 35%
- EC50 (human PBMCs): 1580 nM
